“Also recorded” adds a separate entry of the source.
Experiments:
Format in all cases: cell-based, human
phospho-ERK1/2 = test: Western immunoblotting of phospho-ERK1/2 protein levels; settings: Western blot
Procedure: (§1) A375Hu cells were seeded in 6-well plates and transfected with different concentrations (10, 50 and 100 nM) of synthetic hsa-miR-129-5p or BRAF siRNA (100 nM) using RNAiMAX (7.5 μl/well). As control a scrambled miRNA and a non-targeting siRNA pool were included. Proteins were harvested 72 hrs post transfection using RIPA buffer supplemented with HALT™ Phosphatase Inhibitor (Thermo Scientific) and Protease Inhibitor Cocktail (Sigma). Fifteen μg protein was loaded on 7.5% TGX acrylamide gels (Bio-Rad) and subsequently transferred to PVDF membranes. The membranes were blocked in 5% milk in TBS-T and incubated O/N at 4° C. with primary antibodies to bRAF, phosphoERK1/2, CDK6, and tubulin (Santa Cruz). After incubation with secondary goat-anti-mouse antibodies (Santa Cruz), membranes were developed using ECL (Pierce).
as §1, with “(1, 10” for “(10, 50”, “hsa-miR-3157” for “hsa-miR-129-5p”, “bRAF, total ERK1/2,” for “bRAF,”, “CDK4, BCL2” for “CDK6,”
as §1, with “concentrations” for “concentrations (10, 50 and 100 nM)”, “vemurafenib (PLX-4032, 0.01, 0.1, 1 uM).” for “synthetic hsa-miR-129-5p or BRAF siRNA (100 nM) using RNAiMAX (7.5 μl/well). As control a scrambled miRNA and a non-targeting siRNA pool were included.”, “bRAF, total ERK1/2,” for “bRAF,”, “CDK4, BCL2” for “CDK6,”
A2058 cells were seeded in 6-well plates and transfected with different concentrations (1, 10 and 100 nM) of synthetic hsa-miR-3157-5p or BRAF siRNA using X-TremeGene (Roche, 15 μl/well). As control a scrambled miRNA was included. Proteins were harvested 72 hrs post transfection using RIPA buffer supplemented with HALT™ Phosphatase Inhibitor (Thermo Scientific) and Protease Inhibitor Cocktail (Sigma). Fifteen μg protein was loaded on 10% TGX acrylamide gels (Bio-Rad) and subsequently transferred to PVDF membranes. The membranes were blocked in 5% milk in TBS-T and incubated O/N at 4° C. with primary antibodies to bRAF, total ERK1/2, phosphoERK1/2, BCL2, CDK4 and tubulin (Santa Cruz). After incubation with secondary goat-anti-mouse antibodies (Santa Cruz), membranes were developed using ECL (Pierce).
Transfection was performed as described in Example 4 in 6-well format. Proteins were isolated using RIPA buffer (50 mM Tris pH 8.0, 150 mM NaCL, 1% NP-40, 0.5% Sodium deoxycholate, 0.1% SDS), supplemented with Protease Inhibitor Cocktail (Sigma) and Halt™ Phosphatase Inhibitor Cocktail (Pierce/Thermo Scientific). […]

AURKB = test: Western blotting of AURKB protein levels
Procedure: (§2) Transfection was performed as described in Example 4 in 6-well format. Proteins were isolated using RIPA buffer (50 mM Tris pH 8.0, 150 mM NaCL, 1% NP-40, 0.5% Sodium deoxycholate, 0.1% SDS), supplemented with Protease Inhibitor Cocktail (Sigma) and Halt™ Phosphatase Inhibitor Cocktail (Pierce/Thermo Scientific). Fifteen μg protein was loaded on a 12% Mini-PROTEAN® TGX™ Precast Gel (Bio-Rad), and proteins were transferred to Immun-Blot PVDF Membrane (Bio-Rad). Membranes were blocked in 5% milk or 5% BSA in TBS-T, and incubated O/N at 4° C. with primary antibodies against α-tubulin (1:5000), BRAF, pERK1/2, CDK4, RRM2 (all 1:1000), BCL-2 (1:500) (Santa Cruz), total-ERK1/2 (1:2000), BIRC5, AURKB (1:1000) (Cell Signaling), ERK1 (1:2000) (GeneTex). After incubation with appropriate secondary antibodies and western blot chemiluminescence substrate ECL (Pierce/Thermo Scientific), membranes were exposed to CL-XPosure Film (Pierce/Thermo Scientific).

BIRC5 = test: Western blotting of BIRC5 protein levels
Procedure: as §2

[1] = vemurafenib-resistant A2058, M249-AR4 and M376, 1 μM, 24 hrs (FIG. 14b)
[2] = vemurafenib-sensitive A375 and M249, 1 μM, 24 hrs (FIG. 14b)
[3] = A375 cells, increasing concentrations of mimic (FIG. 12c)
[4] = A2058, M249, M249-AR4 and M376, increasing concentrations of mimic (FIG. 14a)

| Molecule | phospho-ERK1/2 protein levels (phospho-ERK1/2; A375Hu cells, 72 hrs) | phospho-ERK1/2 protein levels (phospho-ERK1/2; A375Hu cells, 72 hrs, listed as PLX-4032) | AURKB protein levels (AURKB; [1]) | AURKB protein levels (AURKB; [2]) | BIRC5 protein levels (BIRC5; [1]) | BIRC5 protein levels (BIRC5; [2]) | phospho-ERK1/2 protein levels (phospho-ERK1/2; A2058 cells (vemurafenib resistant), 72 hrs post transfection) | AURKB protein levels (AURKB; [3]) | AURKB protein levels (AURKB; [4]) | BIRC5 protein levels (BIRC5; [3]) | BIRC5 protein levels (BIRC5; [4]) |
| --- | --- | --- | --- | --- | --- | --- | --- | --- | --- | --- | --- |
| CCCS(=O)(=O)Nc1ccc(F)c(C(=O)c2c[nH]c3ncc(-c4ccc(Cl)cc4)cc23)c1F [Vemurafenib, N-(3-{[5-(4-chlorophenyl)-1H-pyrrolo[2,3-b]pyridin-3-yl]carbonyl}-2,4-difluorophenyl)propane-1-sulfonamide] | inhibits | down regulation | protein levels similar to control-treated cells | downregulated | protein levels similar to control-treated cells | downregulated |  |  |  |  |  |
| hsa-miR-3157-5p: mature miRNA mimic, SEQ ID NO 6 UUCAGCCAGGCUAGUGCAGUCU (listed as RNA, chemistry not given here) | does not down-regulate; also recorded: not affected |  |  |  |  |  | not down-regulated | most pronounced | strongly downregulated | most pronounced | strong downregulation |
